The record followed here is US8586572B2, “3-phenyl-azetidine derivatives useful as modulators of cortical catecholaminergic neurotransmission” (Integrative Research Laboratories Sweden AB, priority 2008, dated 2013).

The structures appear in SMILES notation. Where a name gives a salt, the structure may show the parent alone.

Data set [1] deals with extracellular NA, DA and 5-HT in prefrontal cortex. Briefly: Microdialysis in awake and freely moving rats, prefrontal cortex. In kind it is in vivo, rat. The following applies: 50 μmol/kg s.c., awake freely moving rats; for DA PFC ± SEM, maximum effect compared to baseline values: dopamine in prefrontal cortex dialysate; for NA PFC ± SEM, maximum effect compared to baseline values: norepinephrine in prefrontal cortex dialysate; for 5-HT PFC ± SEM, maximum effect compared to baseline values: serotonin in prefrontal cortex dialysate. An excerpt:
(§1) Male Sprague-Dawley rats weighing 220-320 g were used throughout the experiments. Before the experiment the animals were group housed, five animals in each cage, with free access to water and food. The animals were housed at least one week after arrival prior to surgery and use in the experiments. Each rat was used only once for microdialysis.
(§2) We use a modified version (Waters et al., 1994) of the I-shaped probe (Santiago and Westerink, 1990). The dialysis membrane we use is the AN69 poly-acrylonitrile/sodiummethalylsulfonate copolymer (HOSPAL; o.d./i.d. 310/220 μm: Gambro, Lund, Sweden). In the dorsal striatum we use probes with an exposed length of 3 mm of dialysis membrane and in the prefrontal cortex the corresponding length is 2.5 mm. The rats were operated under isoflurane inhalationanesthesia while mounted into a Kopf stereotaxic instrument. Co-ordinates were calculated relative to bregma; dorsal striatum AP +1, ML ±2.6, DV −6.3; Pf cortex, AP +3.2, 8° ML ±1.2, DV −4.0 according to (Paxinos & Watson, 1986). The dialysis probe was positioned in a burr hole under stereotaxic guidance and cemented with phosphatine dental cement.
(§3) The rats were housed individually in cages for 48 h before the dialysis experiments, allowing them to recover from surgery and minimizing the risk of drug interactions with the anaesthetic during the following experiments. During this period the rats had free access to food and water. On the day of experiment the rats were connected to a micro perfusion pump via a swiwel and were replaced in the cage where they could move freely within its confinements. The perfusion medium was a Ringer's solution containing in mmol/l: NaCl; 140, CaCl2; 1.2, KCl; 3.0, MgCl2; 1.0 and ascorbic acid; 0.04 according to (Moghaddam & Bunney, 1989). The pump was set to a perfusion speed of 2 μl/min and 40 μl samples were collected every 20 min. Each sample was analyzed at two HPLC systems. On an autoinjector (CMA 200) with a 10-port valve (Valco C10WE), holding two sample loops in series (4 μl and 20 μl), each brain dialysate sample is loaded in both loops simultaneously. At injection the 20 μl sample is introduced into a column switching system (reverse-phase combined with reverse-phase ion-pairing) for dopamine (DA), noradrenaline (NA), normetanephrine (NM), 3-methoxytyramine (3-MT) and serotonin (5-hydroxytryptamine, 5-HT) determination, while the 4 μl sample is introduced on a reverse-phase column for the chromatography of the acidic monoamine metabolites 3,4-di-hydroxyphenylacetic acid (DOPAC), homovanillic acid (HVA) and 5-hydroxyindoleacetic acid (5-HIAA). The currents generated by the two EC detectors are converted to digital data and evaluated using Chromeleon software (Dionex) on a PC. The method sample turn over time was 4.5 min and two parallel experiments are normally analyzed simultaneously on the system.
(§4) After the experiment the rats were uncoupled from the perfusion pump and decapitated. Their brains were rapidly taken out and fixed in Neo-fix solution (Kebolab, Sweden) for subsequent inspection of probe localisation. The Animal Ethics Committee in Göteborg, Sweden approved the procedures applied in these experiments.
(§5) The microdialysis was performed in awake and freely moving rats.
(§6) Dopamine=DA; Norepinephrine=NA; Serotonin=5-HT; Stri=Striatum; PFC=Prefrontal Cortex.

Data set [2] deals with extracellular NA, DA and 5-HT in striatum. In words: Microdialysis in awake and freely moving rats, dorsal striatum. The format is in vivo, rat. The following applies: 50 μmol/kg s.c., awake freely moving rats; for DA Stri ± SEM, maximum effect compared to baseline values: dopamine in striatum dialysate; for 5-HT Stri ± SEM, maximum effect compared to baseline values: serotonin in striatum dialysate.
Source text: as §1, §2, §3, §4, §5, §6

In the case of `COC1(c2cccc(F)c2F)CNC1` (as salt: oxalic acid salt) [Example 8, 3-(2,3-difluorophenyl)-3-methoxyazetidine], the melting point (in general, the temperature of the solid-liquid transition) is 141 to 142 °C.

Regarding `CCN1CC(O)(c2cc(F)cc(F)c2)C1` (as salt: fumaric acid salt), the melting point lay within 140 to 141 °C.

Compound `CCN1CC(OC)(c2cccc(F)c2F)C1` (as salt: oxalic acid salt) [Example 9, 3-(2,3-difluorophenyl)-1-ethyl-3-methoxyazetidine] showed a melting point of 147 to 148 °C.

As for `CCN1CC(O)(c2cc(F)cc(Cl)c2)C1` (as salt: fumaric acid salt), the melting point was 166 to 168 °C.

For `CCN1CC(O)(c2ccc(F)c(F)c2)C1` (as salt: fumaric acid salt) [Example 2, 3-(3,4-difluorophenyl)-1-ethylazetidin-3-ol], the melting point is 177 to 179 °C.

As to `CCN1CC(O)(c2ccc(F)c(F)c2)C1` [Example 2, 3-(3,4-difluorophenyl)-1-ethylazetidin-3-ol], in data set [1], the “DA PFC ± SEM, maximum effect compared to baseline values” was 309 ± 62% of control; the “NA PFC ± SEM, maximum effect compared to baseline values” was 397 ± 59% of control; the “5-HT PFC ± SEM, maximum effect compared to baseline values” was 182 ± 33% of control. In data set [2], the “DA Stri ± SEM, maximum effect compared to baseline values” was 112% of control and the “5-HT Stri ± SEM, maximum effect compared to baseline values” is 162% of control.

Consider `CCN1CC(O)(c2cccc(Cl)c2F)C1` (as salt: fumaric acid salt), for which the melting point lay in the range of 172 to 173 °C.

`CCN1CC(O)(c2cccc(F)c2F)C1` (as salt: fumaric acid salt) [Example 1, 3-(2,3-difluorophenyl)-1-ethylazetidin-3-ol]: the melting point was 148 to 150 °C.

Consider `CCN1CC(OC)(c2cccc(F)c2F)C1` [Example 9, 3-(2,3-difluorophenyl)-1-ethyl-3-methoxyazetidine], for which, in data set [1], the “DA PFC ± SEM, maximum effect compared to baseline values” is 215 ± 54% of control; the “NA PFC ± SEM, maximum effect compared to baseline values” is listed as 298 ± 79% of control; the “5-HT PFC ± SEM, maximum effect compared to baseline values” is 169 ± 65% of control. In data set [2], the “DA Stri ± SEM, maximum effect compared to baseline values” is 122 ± 12% of control and the “5-HT Stri ± SEM, maximum effect compared to baseline values” is listed as 134 ± 22% of control.

For `CCN1CC(O)(c2cccc(F)c2F)C1` [Example 1, 3-(2,3-difluorophenyl)-1-ethylazetidin-3-ol], in data set [1], the “DA PFC ± SEM, maximum effect compared to baseline values” is recorded as 211 ± 61% of control; the “NA PFC ± SEM, maximum effect compared to baseline values” is given as 438 ± 91% of control; the “5-HT PFC ± SEM, maximum effect compared to baseline values” was 130 ± 11% of control. Moreover, in data set [2], the “DA Stri ± SEM, maximum effect compared to baseline values” is given as 219 ± 113% of control and the “5-HT Stri ± SEM, maximum effect compared to baseline values” is 113 ± 13% of control. Also, the “NA Stri ± SEM, maximum effect compared to baseline values” in data set [2] (norepinephrine in striatum dialysate) is reported as 261 ± 151% of control.
